The record followed here is publication PMC9332204, “Study of Novel Peptides for Antimicrobial Protection in Solution and on Cotton Fabric” (Molecules, 2022).

One assay relates to P. aeruginosa. In words: Disc test on agar medium. The format is cell-based, Pseudomonas aeruginosa. Conditions: discs, gentamicin disc 10 µg. The protocol: (§1) Initially, the compounds were tested on an agar medium using commercial discs with gentamicin (10 µg) as a standard against B. cereus and P. aeruginosa used as model bacterial strains. As a result, no inhibition zones were observed around the discs with the compounds against both tested strains. With gentamicin, zones (mm in diameter) of 15 mm against B. cereus, and 12 mm against P. aeruginosa, were measured.
(§2) The antibacterial activity of the investigated compounds was tested against Gram-positive Bacillus cereus and Gram-negative Pseudomonas aeruginosa used as model strains (Collection of the Institute of Microbiology, Bulgarian Academy of Sciences). Microbial cultures were maintained at 4 °C on meat-peptone agar (MPA) slants and transferred monthly.

Another assay deals with B. cereus. In words: Disc test on agar medium. The format is cell-based, Bacillus cereus. Conditions: discs, gentamicin disc 10 µg. The protocol: as §1, §2
Assay [1] concerns replication of HAdV-5 in HEp-2 cells. In words: Antiviral activity assay, CPE inhibition. The format is cell-based. Conditions: Human adenovirus sp., HEp-2, read-out: IC50, antiviral activity on the replication of HAdV-5. As to the method:
For checking the viral load, the antiviral screening based on the viral yield reduction technique was used. The cytopathic inhibition assay (CPE) utilizes 100 CCID50 loading in 0.1 mL of a monolayer of confluent cells in 96-well plates. After 1 h of virus adsorption, the extract was added in various concentrations, and cells were incubated for 48 h at 37 °C. The viable cells were stained according to the neutral red uptake procedure and the percentage of CPE inhibition for each concentration of the test sample was calculated using the following formula: % CPE = [ODtest sample − ODvirus control]/[ODtoxicity control − ODvirus control] × 100. The concentration of the material inhibition 50% of viral replication when compared to the virus control was defined as the 50% inhibitory concentration (IC50). The ratio CC50/IC50 was calculated to evaluate the selectivity index (SI).

Molecules are shown by their SMILES.

As a reminder, the IC50 is the concentration that inhibits the measured activity by half.

`CNC(C)C1CCC(N)C(OC2C(N)CC(N)C(OC3OCC(C)(O)C(NC)C3O)C2O)O1` (stereo not drawn) [gentamicin]: the “inhibition zone (mm in diameter)” value with P. aeruginosa was determined as 12 mm; with B. cereus, 15 mm. With `NC(=O)c1ncn([C@@H]2O[C@H](CO)[C@@H](O)[C@H]2O)n1` [Ribavirin], the 50% inhibitory concentration (IC50) in assay [1] was 115 µM.
